The record followed here is patent US20250268854A1, “2-AMINO-5,5-DIMETHYLHEXANOIC ACID DERIVATIVES AS SORTILIN MODULATORS FOR USE IN THE TREATMENT OF DISEASE OF THE CENTRAL NERVOUS SYSTEM” (c/o Vesper Bio ApS, priority 2021, published 2025).

Data set [1] in a line: Brain homogenate binding by rapid equilibrium dialysis. It is filed as in vitro ADME. As to conditions: 37° C. The protocol: (§1) Rapid Equilibrium Dialysis The test compounds were incubated in CD1-mouse plasma and brain homogenate at 37° C. in RED device with inserts (8K MWCO, Thermo scientific) for 4 hours at 5 μM in triplicates. 350 μL of 150 mM phosphate buffered saline (PBS, pH 7.4) was used as the receiver side solutions. The samples were collected from both sides after 4 hours equilibration time and their matrices were made similar by diluting the donor side sample using blank PBS, and by diluting the receiver side sample using blank plasma/phosphate buffered saline. After the incubation, aliquots of donor side matrixes were diluted with an equal volume of the blank receiver side matrix and aliquots of receiver side matrixes were diluted with an equal volume of blank donor side matrix. All samples were protein precipitated by addition of a two-fold volume of acetonitrile containing 100 nM of repaglinide as an internal standard. After 10-minute centrifugation at 13 200 rpm, the sample supernatants were analysed with an LC-MS/MS, to obtain the unbound fraction of the test compound (Fub). The unbound fraction was calculated from the peak area ratios obtained for each matrix: […]
(§2) Recovery samples were prepared in each condition but without dialysis, and were used for evaluation of recovery from the dialysis experiment using following formula: […]
(§3) where VPBS is the volume on the receiver side (PBS) and Vplasma is the volume on donor side (plasma) of the dialysis device. Crecovery is the analyte concentration measured from the recovery sample.
(§4) Propranolol (1 μM) and fluoxetine (5 μM) were included in the experiment as a control compounds.
The unbound fraction in brain (Fub, brain) was calculated from the measured value in brain homogenate (Fub, meas), taking into account the dilution factor used in preparing the brain homogenate:
where D=dilution factor (here 5).

A further data set concerns the target h-Sortilin (Homo sapiens (Human), UniProt Q99523). The data set is described as follows: Neurotensin (NTS) scintillation proximity assay (SPA): displacement of [3H]-neurotensin binding. As to conditions: 150 nM 6his-Sortilin, 5 nM [3H]-Neurotensin; average of at least 2 determinations. Here is the method:
The exemplified compounds of the invention were tested in a Neurotensin (NTS) scintillation proximity assay (SPA). NTS, which is a 13 amino acid neuropeptide, is a sortilin ligand. The IC50 is a measure of the amount of the compound required to inhibit the binding of NTS to sortilin by 50%. […] Compound affinity was determined by measuring the displacement of [^3H]-neurotensin binding to h-Sortilin in SPA format. […] IC50 values were calculated by nonlinear regression using the sigmoid concentration-response (variable slope) using CDD Vault software. All values reported are average of at least 2 determinations.

A short description of data set [2]: Blood-brain-barrier permeability of study compounds in mice after PO administration. The settings on record: mouse; for concentration at 1 h: po, T = 1 hour.
Protocol: Separately, the fraction of compound bound to plasma protein or brain homogenate was measured to allow assessment of free fractions.
In practice, unbound fractions in plasma and brain tissue were assessed using rapid equilibrium dialysis in vitro. Separately a pharmacokinetic study was run in vivo whereby a dose of the compound of interest was given at T=0 hours and at subsequent timepoints (eg 0.5, 1 and 4 hours) plasma and separately brain samples were analysed for total concentration of the compound of interest. These total concentrations could then be adjusted with the unbound fraction to give the unbound concentrations in the plasma and brain. The unbound partition coefficient (Kpuu) was then determined as a ratio between the free compound concentrations in the compartment of interest, here the brain/CNS and the plasma.
The compound is administered to the animal in a suitable vehicle at T=0 hours. At one hour post administration plasma and separately brain are removed, prepared and analysed for total compound concentration.
Mouse brain samples were prepared for analysis by homogenization with Omni bead ruptor, using 4-fold volume of 150 mM phosphate buffered saline (PBS) (E.g. 400 uL PBS+100 mg brain). After homogenization, a 30 μL homogenate sample was mixed with 60 μL of internal standard solution (100 ng/ml of repaglinide and phenacetin in acetonitrile (ACN) containing 1% formic acid) and mixed. Samples were centrifuged for 20 minutes (4000 rpm, Thermo Scientific SL16) and 50 μl of supernatant, together with 100 μl of 50% acetonitrile was transferred on an analytical plate. Standard samples were prepared by spiking blank brain homogenate to obtain concentrations from 0.1 to 10 000 ng/ml in brain homogenate by using one volume of spiking solution and nine volumes of blank homogenate. Quality control (QC) samples were prepared for concentrations at 3, 30, 300 and 3000 ng/ml by using one volume of spiking solution and nine volumes of blank brain homogenate. The standards and QCs were then prepared for analysis similarly as the samples. Blank brain matrix was collected in-house from CD-1 mice.
The samples were prepared by mixing 30 μL of plasma sample with 60 μL of internal standard solution (100 ng/ml of repaglinide and phenacetin in ACN with 1% of formic acid) and mixed. Samples were centrifuged for 20 minutes (4000 rpm, Thermo Scientific SL16) and 50 μl of supernatant, together with 100 μl of 50% acetonitrile was transferred on analytical plate. 10 μl of diluted samples were transferred on analytical plate and further diluted with 190 μl of 50% acetonitrile. Standard samples were prepared by spiking blank plasma to obtain concentrations from 0.1 to 10 000 ng/ml in plasma by using one volume of spiking solution and nine volumes of blank plasma. Quality control (QC) samples were prepared for concentrations at 3, 30, 300 and 3000 ng/ml by using one volume of spiking solution and nine volumes of plasma. The standards and QCs were then prepared for analysis similarly as the samples. Blank plasma was collected in-house from CD-1 mice.
Instrumentation: Waters Acquity UPLC+Waters TQ-S triple quadrupole MS; Column: Waters Acquity HSS T3 (2.1×50 mm, 1.8 μm) column with pre-column filter; Gradient Elution; A=0.1% Formic acid, B=Acetonitrile
Data set [3] in a line: Plasma protein binding by rapid equilibrium dialysis. As to conditions: 37° C. It is filed as in vitro ADME. Here is the method:
as §1
where CPBS and Cplasma are the analyte concentrations in PBS (receiver) and plasma (donor), respectively.
as §2, §3, §4
(Equilibrium dialysis compares concentrations on both sides of a semipermeable membrane.)

A further data set deals with human Sortilin (Homo sapiens (Human), UniProt Q99523). The data set can be described thus: Creoptix (GCI) binding kinetics, human Sortilin. As to conditions: screened at 1 μM. Here is the method:
A protein, bound to a surface, is bathed in a solution containing potential ligands giving rise to binding kinetics to generate Kon and Koff rates, as well as a Kd.
All buffers described were filtered using a 0.2 μm filter (Product number: 10300461, Nalgene) and degassed for 15 minutes prior to use.
A flow cell temperature of 25 degrees Celsius was used throughout the experiment.
A 4PCH chip was conditioned across all flow cells using 0.2× concentration running buffer (running buffer composition: 1×HBS-N, pH 7.4, 3.4 mM EDTA, 1% DMSO) using pre-set conditioning wizard (WAVE control software) injecting: 0.1 M borate, 1 M NaCl (pH 9) followed by three start-up injections of 0.2× running buffer.
A buffer exchange was performed and 1× running buffer (1×HBS-N, pH 7.4, 3.4 mM EDTA, 1% DMSO) used during the immobilisation procedure:
An initial injection of EDC/NHS (mixed in 1:1 ratio) was performed across all 4-flow cells to activate the surface for amine coupling of ligands.
Recombinant Sortilin aliquots were thawed quickly by hand and centrifuged at 13,300 rpm for 10 minutes. A 10 μg/ml protein solution was then made in pH 5.0 acetate and injected once for 20 minutes over flow-cells 2, 3 and 4 for human, human (flow cells 2 & 3), and mouse Sortilin respectively followed by a 60 second dissociation period.
A final 7-minute passivation injection of 50 mM tris was used across all flow cells.
A flow rate of 10 μl/min was used for all conditioning and immobilisation cycles.
Compounds were screened at 1 μM using the in-built ‘intermediate binders’ settings: 100 ul/min, 45 s baseline, 25 s association, 300 s dissociation, with blanks every 5th sample and a DMSO correction (1.5% DMSO at the start and end of the experiment as well as every 20 cycles. An acquisition rate of 10 Hz was used throughout the experiment.
Compounds were screened at a final assay concentration of 1 μM and a final DMSO concentration was 1%. To achieve this, compounds were diluted in DMSO from 10 mM stocks to 100 μM (100×final assay concentration) then diluted 1:100 in running buffer which contained no DMSO to establish a final assay concentration of compound of 1 μM and a final DMSO concentration of 1% [DMSO].
Compounds and DMSO were mixed by plate shaking at 1000 rpm for 60 seconds using a Bioshake instrument.
A flow rate of 100 μl/min was used throughout the experiment.
Data was evaluated using the RAPID kinetic analysis tool in the GCI WAVE_control software with data fitted using a standard 1:1 kinetic BioModel.

Counter-ions that a name gives are not always drawn.

As usually defined, the IC50 is the concentration that inhibits the measured activity by half. Read a low IC50 as inhibition by little substance. One may read the Kd as the free concentration of one partner at which half of the binding sites on the other are occupied at equilibrium, for simple one-to-one binding.

Chain of human Sortilin (Q99523 78-755): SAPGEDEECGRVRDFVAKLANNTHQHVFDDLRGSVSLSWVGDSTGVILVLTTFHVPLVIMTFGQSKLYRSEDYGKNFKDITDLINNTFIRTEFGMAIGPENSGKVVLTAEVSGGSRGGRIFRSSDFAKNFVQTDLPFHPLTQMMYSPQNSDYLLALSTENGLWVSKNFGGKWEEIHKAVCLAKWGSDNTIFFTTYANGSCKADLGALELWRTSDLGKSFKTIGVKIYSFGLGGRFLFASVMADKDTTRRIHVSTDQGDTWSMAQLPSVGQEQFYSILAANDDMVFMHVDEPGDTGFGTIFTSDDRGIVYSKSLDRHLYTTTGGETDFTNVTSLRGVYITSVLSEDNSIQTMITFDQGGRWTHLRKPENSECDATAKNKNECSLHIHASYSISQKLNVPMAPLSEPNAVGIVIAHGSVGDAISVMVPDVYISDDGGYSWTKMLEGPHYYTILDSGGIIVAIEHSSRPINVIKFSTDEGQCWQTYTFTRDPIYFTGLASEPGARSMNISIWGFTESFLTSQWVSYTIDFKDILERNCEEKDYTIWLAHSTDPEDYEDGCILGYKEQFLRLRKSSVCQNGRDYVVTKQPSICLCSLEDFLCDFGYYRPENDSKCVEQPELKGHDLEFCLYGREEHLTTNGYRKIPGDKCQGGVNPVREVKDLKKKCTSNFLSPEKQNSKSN
Chain of h-Sortilin (Q99523 78-831): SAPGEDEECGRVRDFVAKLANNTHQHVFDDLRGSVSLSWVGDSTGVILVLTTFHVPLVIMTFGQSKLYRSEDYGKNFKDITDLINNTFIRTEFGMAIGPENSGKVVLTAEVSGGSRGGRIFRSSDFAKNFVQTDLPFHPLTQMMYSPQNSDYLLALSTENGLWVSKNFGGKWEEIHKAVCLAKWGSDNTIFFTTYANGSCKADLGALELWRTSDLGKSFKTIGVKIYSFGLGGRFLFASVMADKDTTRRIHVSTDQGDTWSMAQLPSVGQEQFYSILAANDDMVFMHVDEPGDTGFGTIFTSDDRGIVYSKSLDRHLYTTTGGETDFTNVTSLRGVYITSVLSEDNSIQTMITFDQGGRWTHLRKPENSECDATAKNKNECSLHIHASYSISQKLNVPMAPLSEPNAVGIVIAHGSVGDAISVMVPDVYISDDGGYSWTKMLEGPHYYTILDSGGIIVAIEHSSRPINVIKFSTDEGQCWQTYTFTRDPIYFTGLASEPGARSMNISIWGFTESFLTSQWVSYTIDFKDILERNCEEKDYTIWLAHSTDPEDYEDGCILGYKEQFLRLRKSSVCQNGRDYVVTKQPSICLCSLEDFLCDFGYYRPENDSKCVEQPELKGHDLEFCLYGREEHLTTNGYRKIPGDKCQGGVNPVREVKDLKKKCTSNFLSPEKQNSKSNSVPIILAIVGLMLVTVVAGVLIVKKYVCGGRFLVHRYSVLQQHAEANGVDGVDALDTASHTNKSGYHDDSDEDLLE

On to `Cn1ccc2c(CN[C@@H](CCC(C)(C)C)C(=O)O)cccc21` [Example 6, (S)-5,5-dimethyl-2-(((1-methyl-1H-indol-4-yl)methyl)amino)hexanoic acid hydrochloride], for which, in data set [1] (5 μM, 4 hours, dilution factor 5), the “Mouse Brain Unbound (Fu, %)” value is 22.9%. For the same molecule, the fraction unbound at 4 h, 5 μM in data set [1] (CD1, pH 7.4, mouse brain homogenate, dilution factor 5, read-out: Mouse Brain Unbound (Fu, %)) is 0.229; in data set [3] (pH 7.4, CD1-mouse plasma, read-out: Mouse Plasma Unbound (Fu, %)) it was 0.058. Also, the half-inhibitory concentration (IC50) at h-Sortilin amounted to 330 nM. For the same molecule, the Kp uu at 1 h in data set [2] (brain and plasma (unbound concentrations), oral, Kpuu, ratio of unbound brain to unbound plasma concentration) is greater than 0.1. Further, the concentration at 1 h in data set [2] (brain, Brain Tissue Concentration (ng/g) T = 1 hour) was determined as 6.25 ng/g; in data set [2] (brain, Unbound Brain Concentration (ng/mL) T = 1 hour), 1.4 ng/mL; in data set [2] (plasma, Total Plasma Concentration (ng/ml) T = 1 hour) it was 138 ng/mL; in data set [2] (plasma, Unbound Plasma Concentration (ng/mL) T = 1 hour), 8 ng/mL. For the same molecule, in data set [2] (conclusion in words), the “blood brain barrier penetration” value is recorded as “permeate the blood brain barrier”. The “Mouse Plasma Unbound (Fu, %)” value in data set [3] (CD1-mouse plasma, 5 μM, 4 hours) came to 5.8%.

`CC(C)(C)CC[C@H](NCc1ccc2c(c1)OCCO2)C(=O)O` [Example 41, (2S)-2-{[(2,3-dihydro-1,4-benzodioxin-6-yl)methyl]amino}-5,5-dimethylhexanoic acid] came in with an IC50 at h-Sortilin of 330 nM. On human Sortilin (Free acid), this molecule yielded a Kd of 5960 nM.

In the case of `CC(C)(C)CC[C@H](NCc1cccc2c1OCO2)C(=O)O` [Example 45, (2S)-2-{[(2H-1,3-benzodioxol-4-yl)methyl]amino}-5,5-dimethylhexanoic acid], the half-maximal inhibitory concentration (IC50) at h-Sortilin is 1060 nM. At human Sortilin (Free acid), this molecule registered a Kd of 285 nM.

Molecule `CC(C)(C)CC[C@H](NCc1cncnc1)C(=O)O` [Example 55, (2S)-5,5-dimethyl-2-{[(pyrimidin-5-yl)methyl]amino}hexanoic acid] returned an IC50 at h-Sortilin of 410 nM. In addition, the equilibrium dissociation constant (Kd) at human Sortilin (Free acid) is 1980 nM.

Turning to `COc1cc(C)cc(CN[C@@H](CCC(C)(C)C)C(=O)O)c1` [Example 69, (2S)-2-{[(3-methoxy-5-methylphenyl)methyl]amino}-5,5-dimethylhexanoic acid], the IC50 on h-Sortilin amounted to 1390 nM. This molecule also yielded a Kd at human Sortilin (Free acid) of 2760 nM.

Molecule `COc1cc(CN[C@@H](CCC(C)(C)C)C(=O)O)ccc1F` [Example 74, (2S)-2-{[(4-fluoro-3-methoxyphenyl)methyl]amino}-5,5-dimethylhexanoic acid] displayed an IC50 at h-Sortilin of 950 nM. Besides, binding at human Sortilin (Free acid) was put at a Kd of 3390 nM.

Molecule `COc1cccc(CN[C@@H](CCC(C)(C)C)C(=O)O)c1C` [Example 75, (2S)-2-{[(3-methoxy-2-methylphenyl)methyl]amino}-5,5-dimethylhexanoic acid] gave a concentration for half-maximal inhibition (IC50) at h-Sortilin of 980 nM. Further, at human Sortilin (Free acid), the Kd turned out to be 443 nM.

For the molecule `COc1ccc([C@H](C)N[C@@H](CCC(C)(C)C)C(=O)O)cc1C` [Example 101], on h-Sortilin, the half-inhibitory concentration (IC50) came to 280 nM. On human Sortilin (Free acid), this molecule came in with a Kd of 277 nM.

As for `COc1ccc([C@@H](C)N[C@@H](CCC(C)(C)C)C(=O)O)cc1C` [Example 102], the 50% inhibitory concentration (IC50) on h-Sortilin is 540 nM. On human Sortilin (Free acid), this molecule had an equilibrium dissociation constant (Kd) of 407 nM.

On h-Sortilin, `CC(C)(C)CC[C@H](NCc1cnc2cccnc2c1)C(=O)O` [Example 103, (2S)-5,5-dimethyl-2-{[(1,5-naphthyridin-3-yl)methyl]amino}hexanoic acid] registered an IC50 of 160 nM. On human Sortilin (Free acid), this molecule gave a Kd of 83.2 nM.

Regarding `COc1ccc([C@@H](C)N[C@@H](CCC(C)(C)C)C(=O)O)cc1OC` [Example 107, (2S)-2-{[(1R)-1-(3,4-dimethoxyphenyl)ethyl]amino}-5,5-dimethylhexanoic acid], the IC50 at h-Sortilin was found to be 930 nM. The same molecule gave a Kd on human Sortilin (Free acid) of 443 nM.

For `COc1ccc([C@H](N[C@@H](CCC(C)(C)C)C(=O)O)C(F)F)cc1OC` [Example 112, (2S)-2-{[(1S)-1-(3,4-dimethoxyphenyl)-2,2-difluoroethyl]amino}-5,5-dimethylhexanoic acid], the IC50 at h-Sortilin came out at 280 nM. For the same molecule, at human Sortilin (Free acid), binding was put at a Kd of 183 nM.

The molecule `COc1ccc([C@@H](N[C@@H](CCC(C)(C)C)C(=O)O)C(F)F)cc1OC` [Example 113, (2S)-2-{[(1R)-1-(3,4-dimethoxyphenyl)-2,2-difluoroethyl]amino}-5,5-dimethylhexanoic acid] returned an IC50 at h-Sortilin of 320 nM. Moreover, binding on human Sortilin (Free acid) was characterised by a dissociation constant (Kd) of 625 nM.

As for `COc1ccc([C@H](N[C@@H](CCC(C)(C)C)C(=O)O)C(F)(F)F)cc1OC` [Example 114, (2S)-2-{[(1S)-1-(3,4-dimethoxyphenyl)-2,2,2-trifluoroethyl]amino}-5,5-dimethylhexanoic acid], the IC50 on h-Sortilin is 220 nM. For the same molecule, binding on human Sortilin (Free acid) was put at a Kd of 132 nM.

Take `COc1ccc([C@@H](N[C@@H](CCC(C)(C)C)C(=O)O)C(F)(F)F)cc1OC` [Example 115, (2S)-2-{[(1R)-1-(3,4-dimethoxyphenyl)-2,2,2-trifluoroethyl]amino}-5,5-dimethylhexanoic acid]: on h-Sortilin, the IC50 is 420 nM. In addition, the dissociation constant (Kd) at human Sortilin (Free acid) worked out at 351 nM.

On to `CC(C)(C)CC[C@H](NCc1ccc(Cl)c(Cl)c1)C(=O)O` [Example 125, (2S)-2-{[(3,4-dichlorophenyl)methyl]amino}-5,5-dimethylhexanoic acid], for which, on h-Sortilin, the IC50 came out at 550 nM. Besides, the Kd on human Sortilin (Ms salt) came to 522 nM.

As to `Cc1ccc(CN[C@@H](CCC(C)(C)C)C(=O)O)cc1Cl` [Example 129, (2S)-2-{[(3-chloro-4-methylphenyl)methyl]amino}-5,5-dimethylhexanoic acid], on h-Sortilin, the concentration for half-maximal inhibition (IC50) is 390 nM. Besides, on human Sortilin (Ms salt), the Kd worked out at 512 nM.

With `Cc1ccc(CN[C@@H](CCC(C)(C)C)C(=O)O)c2ccn(C)c12` [Example 131, (S)-2-(((1,7-dimethyl-1H-indol-4-yl)methyl)amino)-5,5-dimethylhexanoic acid, Mesylic acid], at h-Sortilin, the half-inhibitory concentration (IC50) is 380 nM. On human Sortilin (Free acid), the dissociation constant (Kd) came to 97.6 nM.

As for `Cc1ccc(CN[C@@H](CCC(C)(C)C)C(=O)O)cc1C` [Example 137, (S)-2-((3,4-dimethylbenzyl)amino)-5,5-dimethylhexanoic acid, Mesylic acid], the half-maximal inhibitory concentration (IC50) on h-Sortilin was determined as 740 nM. For the same molecule, the equilibrium dissociation constant (Kd) at human Sortilin (Free acid) came to 208 nM.

Consider `COc1ccc(F)c(CN[C@@H](CCC(C)(C)C)C(=O)O)c1` [Example 140, (2S)-2-{[(2-fluoro-5-methoxyphenyl)methyl]amino}-5,5-dimethylhexanoic acid], for which, at h-Sortilin, the half-inhibitory concentration (IC50) came out at 850 nM. Binding at human Sortilin (Free acid) was put at a Kd of 456 nM.

In turn, `COc1cncc(CN[C@@H](CCC(C)(C)C)C(=O)O)c1` [Example 144, (2S)-2-{[(5-methoxypyridin-3-yl)methyl]amino}-5,5-dimethylhexanoic acid] displayed a half-inhibitory concentration (IC50) at h-Sortilin of 430 nM. On human Sortilin (Free acid), this molecule gave a Kd of 310 nM.
